The source made the active and inactive calls. No cut-off for these calls is given here.
What was measured:
Rattus norvegicus [1] = test: Toxicity in Long-Evans rat assessed as water intake at 90 mg/kg, sc measured after 8 to 9 days (reference value: 53.3 +/- 2.7 mL); assay type: organism-based; design: dose 90 mg/kg, route subcutaneous; settings: in vivo
Rattus norvegicus [2] = test: Antidepressant activity in Long-Evans rat assessed as effect on number of boli excreted at 20 to 90 mg/kg, sc administered 21 days measured for 6 mins by Porsalt forced-swim test relative to vehicle-treated control; assay type: functional, organism-based
Rattus norvegicus [3] = test: Toxicity in Long-Evans rat assessed as white adipose tissue weight at 20 to 90 mg/kg, sc measured after 21 days; assay type: organism-based; design: dose 20-90 mg/kg, route subcutaneous; settings: in vivo, 504 h
Rattus norvegicus [4] = test: Toxicity in Long-Evans rat assessed as water intake at 20 mg/kg, sc measured after 8 to 9 days (reference value: 53.3 +/- 2.7 mL); assay type: organism-based; design: dose 20 mg/kg, route subcutaneous; settings: in vivo
Rattus norvegicus [5] = test: Toxicity in Long-Evans rat assessed as hypothalamic aromatase level at 90 mg/kg, sc measured per mg of protein measured for 21 days (reference value: 60 +/- 6.1 pmol/hr); assay type: organism-based; design: dose 90 mg/kg, route subcutaneous; settings: in vivo, 504 h
Rattus norvegicus [6] = test: Toxicity in Long-Evans rat assessed as water intake at 90 mg/kg, sc measured after 20 to 21 days (reference value: 50.7 +/- 3.5 mL); assay type: organism-based; design: dose 90 mg/kg, route subcutaneous; settings: in vivo
Rattus norvegicus [7] = test: Toxicity in Long-Evans rat assessed as change in estrous cycle pattern at 20 to 90 mg/kg, sc measured for 8 days by vaginal histological analysis; assay type: organism-based; design: dose 20-90 mg/kg, route subcutaneous; settings: in vivo, 192 h
Rattus norvegicus [8] = test: Toxicity in Long-Evans rat assessed as food intake at 90 mg/kg, sc measured after 8 to 9 days (reference value: 33.1 +/- 1.5 g); assay type: organism-based; design: dose 90 mg/kg, route subcutaneous; settings: in vivo
Rattus norvegicus [9] = test: Antidepressant activity in Long-Evans rat assessed as effect on dives at 20 to 90 mg/kg, sc administered 21 days measured for 6 mins by Porsalt forced-swim test relative to vehicle-treated control; assay type: functional, organism-based
Rattus norvegicus [10] = test: Toxicity in Long-Evans rat assessed as food intake at 20 mg/kg, sc measured after 20 to 21 days (reference value: 33.8 +/- 1.8 g); assay type: organism-based; design: dose 20 mg/kg, route subcutaneous; settings: in vivo
Rattus norvegicus [11] = test: Toxicity in Long-Evans rat assessed as food intake at 20 mg/kg, sc measured after 8 to 9 days (reference value: 33.1 +/- 1.5 g); assay type: organism-based; design: dose 20 mg/kg, route subcutaneous; settings: in vivo
Rattus norvegicus [12] = test: Antidepressant activity in Long-Evans rat assessed as mobile index at 20 mg/kg, sc administered 21 days measured for 6 mins by Porsalt forced-swim test (reference value: 286 +/- 8.7 secs); assay type: functional; settings: route subcutaneous
Rattus norvegicus [13] = test: Toxicity in Long-Evans rat assessed as water intake at 20 mg/kg, sc measured after 20 to 21 days (reference value: 50.7 +/- 3.5 mL); assay type: organism-based; design: dose 20 mg/kg, route subcutaneous; settings: in vivo
Rattus norvegicus [14] = test: Antidepressant activity in Long-Evans rat assessed as effect on inverts at 20 to 90 mg/kg, sc administered 21 days measured for 6 mins by Porsalt forced-swim test relative to vehicle-treated control; assay type: functional, organism-based
Rattus norvegicus [15] = test: Toxicity in Long-Evans rat assessed as hypothalamic aromatase level at 20 mg/kg, sc measured per mg of protein measured for 21 days (reference value: 60 +/- 6.1 pmol/hr); assay type: organism-based; design: dose 20 mg/kg, route subcutaneous; settings: in vivo, 504 h
Rattus norvegicus [16] = test: Antidepressant activity in Long-Evans rat assessed as effect on swim speed at 20 to 90 mg/kg, sc administered 21 days measured for 6 mins by Porsalt forced-swim test relative to vehicle-treated control; assay type: functional, organism-based
Rattus norvegicus [17] = test: Toxicity in Long-Evans rat assessed as food intake at 90 mg/kg, sc measured after 20 to 21 days (reference value: 33.8 +/- 1.8 g); assay type: organism-based; design: dose 90 mg/kg, route subcutaneous; settings: in vivo
HL-60 = test: Cytotoxicity against human HL60 cells; assay type: functional; settings: read-out: ED50 (the source's name)
Rattus norvegicus [18] = test: Toxicity in Long-Evans rat assessed as white adipose tissue weight/body weight ratio at 20 to 90 mg/kg, sc measured after 21 days; assay type: organism-based; design: dose 20-90 mg/kg, route subcutaneous; settings: in vivo, 504 h
Rattus norvegicus [19] = test: Antidepressant activity in Long-Evans rat assessed as mobile index at 90 mg/kg, sc administered 21 days measured for 6 mins by Porsalt forced-swim test (reference value: 286 +/- 8.7 secs); assay type: functional; settings: route subcutaneous
[20] = Half life in human; assay type: ADME, organism-based; settings: in vivo

SMILES: CC(=O)Oc1ccc(/C=C/c2cc(O)cc(O)c2)cc1
- Activity (Rattus norvegicus [1]): 56.7 mL
- Activity (Rattus norvegicus [2]): Active
- Activity (Rattus norvegicus [3]): 6.6 g
- Activity (Rattus norvegicus [4]): 52.1 mL
- Activity (Rattus norvegicus [5]): 73 pmol/h
- Activity (Rattus norvegicus [6]): 55.8 mL
- Activity (Rattus norvegicus [7]): Non-toxic
- Activity (Rattus norvegicus [8]): 35.2 g
- Activity (Rattus norvegicus [9]): Active
- Activity (Rattus norvegicus [10]): 35.2 g
- Activity (Rattus norvegicus [11]): 34.3 g
- Time (Rattus norvegicus [12]): 312 s
- Activity (Rattus norvegicus [13]): 50.9 mL
- Activity (Rattus norvegicus [14]): Active
- Activity (Rattus norvegicus [15]): 71 pmol/h
- Activity (Rattus norvegicus [16]): Active
- Activity (Rattus norvegicus [17]): 36.9 g
- EC50 (HL-60): 17 µM
- Ratio (Rattus norvegicus [18]): 2.4
- Time (Rattus norvegicus [19]): 319 s

SMILES: Oc1ccc(/C=C/c2cc(O)cc(O)c2)cc1 [RESVERATROL]
- EC50 (HL-60): 22 µM
- half-life [20]: 30 min
